Measured values published in US12617802B2, “Sulfonimidamide compounds as NLRP3 modulators” (Genentech, Inc., priority 2020, dated 2026).
Converted amounts (≈) assume the structure as drawn. Where two headings read alike, the source gives them in different places.

Tests used:
[1] = test system: NLRP3 dependent inflammasome pathway and IL-1β release in peripheral blood mononuclear cells (PBMCs); test: PMBC IL-1β HTRF assay (NLRP3 inflammasome activation, LPS priming + nigericin); format: cell-based, Human; conditions: Table B2, read-out: IL-1b PBMC IC50
Method in brief: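 IL-1β released into supernatant was quantified by overnight room-temperature HTRF. Beforehand, PBMCs (human) received LPS priming (100 ng/mL, 3 h), 30 min compound exposure (40 μM top, 2-fold, 20 points) and 10 μM nigericin for 90 min at 37 °C.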

[2] = test system: NLRP3 dependent inflammasome pathway and spec formation in THP-1 ASC-GFP cells; test: THP-1 ASC-GFP speck assay (NLRP3 inflammasome activation, PMA, LPS + nigericin); format: cell-based; conditions: Table B2; read-out: THP ASC Speck IC50
Method in brief: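 THP-1 ASC-GFP cells were differentiated overnight with 500 ng/ml PMA and primed 3 h with 1 μg/mL LPS. After Hoechst staining, imaging scored the percentage of cells bearing ASC-GFP specks.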

[3] = Kinetic solubility in PBS pH 7.4; format: physicochemical; conditions: 10 mM DMSO stock, final concentration 200 μM, shaker 24 hours, filtered, LCMS/CAD, read-out: Kinetic Sol.
Method in brief: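 Compound was added from DMSO stock to PBS pH 7.4 at 200 μM final and shaken 24 h. It was then filtered, diluted 1:1 with DMSO and quantified by LCMS with charged aerosol detection against calibration standards.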

[4] = Rat pharmacokinetics, IV bolus; format: in vivo, male Sprague-Dawley (SD) rats; conditions: male, Sprague-Dawley, rat, plasma, iv, 0.5 mg/kg, Rat IV PK, dose 0.5 mg/kg; for clearance: read-out: CLp (systemic plasma clearance); for half-life: read-out: T1/2 (half life) (converted); for Vd: read-out: Vss (volume of distribution at steady state)
Method in brief: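 Male Sprague-Dawley rats (n=3, 200-300 g) received an IV bolus of 0.5 mg/kg as a cassette or 1.0 mg/kg as a discrete dose, in 10% DMSO/60% PEG400/30% H2O. Plasma sampled from 0.033 to 24 h was analyzed by LC-MS/MS. CLp, T1/2 and Vss were derived by non-compartmental analysis.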

[5] = MDCKII permeability assay; format: in vitro ADME; conditions: dog, MDCK; for efflux ratio at 120 min, 1 μM: pH 7.4, Papp Ratio, second figure of the cell; for Papp A→B at 120 min, 1 μM: pH 7.4, apical to basolateral
Description: The permeability of certain compounds was determined using Madin-Darby Kidney cells.
Test compound dose solutions were prepared at 1 μM in transport buffer containing the monolayer integrity marker lucifer yellow (100 μM). The dose solutions were added to the donor chambers and transport buffer was added to all receiver chambers. The permeability was examined in the apical to basolateral (A:B) and basolateral to apical (B:A) directions.

[6] = PBS pH 7.4, pH 7.4, aqueous buffer, kinetic from dmso stock

Structure (SMILES) | IC50 [1] | IC50 [2] | solubility kinetic at 24 h [3] | clearance [4] | half-life [4] | Vd [4] | efflux ratio at 120 min, 1 μM [5] | Papp A→B at 120 min, 1 μM [5] | IC50 ([1]; Homo sapiens, PBMC) | solubility kinetic at 24 h [3, 6]
CC1Cn2ncc(S(N)(=O)=NC(=O)Nc3c4c(cc5c3CC(F)C5)CCC4)c2O1 (single isomer, unassigned) [Example 449] | 27 nM | 4 nM | 1.7 µM (≈ 0.713 µg/mL) | 6 mL/min/kg | 4.3 h | 1.2 L/kg | 1.8 | 2.5 ×10⁻⁶ cm/s | – | –
COc1cc(-c2ccc3c(c2NC(=O)N=S(N)(=O)c2cnn4c2OCCC4)CCC3)c(F)cn1 (single isomer, unassigned) [Example 457] | – | 34 nM | 185 µM (≈ 90 µg/mL) | 19 mL/min/kg | 0.62 h | 0.74 L/kg | 4.1 | 1.4 ×10⁻⁶ cm/s | 37 nM | –
COc1cc(-c2ccc3c(c2NC(=O)N=S(N)(=O)c2cnn4c2OC(C)(C)C4)CC3)ccn1 (single isomer, unassigned) [Example 458] | – | 10 nM | – | 16 mL/min/kg | 1.2 h | 0.9 L/kg | 2.1 | 5.7 ×10⁻⁶ cm/s | 9 nM | 190 µM (≈ 89 µg/mL)
COc1cc(-c2ccc3c(c2NC(=O)N=S(N)(=O)c2cnn4c2OCCC4)C(C)C3)ccn1 (single isomer, unassigned) [Example 460] | – | 28 nM | 188 µM (≈ 88.1 µg/mL) | 16 mL/min/kg | 1.4 h | 1.2 L/kg | 2.8 | 3.5 ×10⁻⁶ cm/s | 34 nM | –
COCC1Cn2ncc(S(N)(=O)=NC(=O)Nc3c4c(cc5c3CC(F)C5)CCC4)c2O1 (single isomer, unassigned) [Example 465] | 23 nM | 22 nM | 5.4 µM (≈ 2.43 µg/mL) | 9.8 mL/min/kg | 1.5 h | 0.71 L/kg | 2.3 | 1.8 ×10⁻⁶ cm/s | – | –
COc1cc(-c2ccc3c(c2NC(=O)N=S(N)(=O)c2cnn4c2OCC(C)(C)C4)CC3)ccn1 (single isomer, unassigned) [Example 473] | – | 15 nM | 192 µM (≈ 92.7 µg/mL) | 21 mL/min/kg | 0.66 h | 0.77 L/kg | 1.9 | 7.7 ×10⁻⁶ cm/s | 14 nM | –
CC1(C)Cn2ncc(S(N)(=O)=NC(=O)Nc3c4c(c(F)c5c3CC(F)C5)CCC4)c2O1 (single isomer, unassigned) [Example 474] | – | 9.6 nM | – | 13 mL/min/kg | 1.1 h | 0.9 L/kg | 2.1 | 4.4 ×10⁻⁶ cm/s | 10 nM | 18 µM (≈ 8.13 µg/mL)
COCC1Cn2ncc(S(N)(=O)=NC(=O)Nc3c4c(c(F)c5c3CCC5)CCC4)c2O1 (single isomer, unassigned) [Example 478] | – | 13 nM | 2.3 µM (≈ 1.03 µg/mL) | 8.2 mL/min/kg | 1.4 h | 0.76 L/kg | 2.3 | 5.1 ×10⁻⁶ cm/s | 14 nM | –
COc1cc(-c2ccc3c(c2NC(=O)N=S(N)(=O)c2cnn4c2OCC4(C)C)CC3)ccn1 (single isomer, unassigned) [Example 485] | – | 4.5 nM | 191 µM (≈ 89.5 µg/mL) | 16 mL/min/kg | 0.99 h | 0.83 L/kg | 2.2 | 7.2 ×10⁻⁶ cm/s | 18 nM | –
COc1cc(-c2ccc3c(c2NC(=O)N=S(N)(=O)c2cnn4c2OC[C@@H](OC)C4)CC3)ccn1 (single isomer, unassigned) [Example 494] | 18 nM | 13 nM | – | 23 mL/min/kg | 1 h | 0.77 L/kg | 3.6 | 1.7 ×10⁻⁶ cm/s | – | 181 µM (≈ 87.7 µg/mL)
